Tested on: PC-3 cells
Assay: Western blot of protein expression levels in PC-3 cells
Type: cell-based, human
Settings: DHMBA 10 μM, three days
Description: The PC-3 cells (1×10^6 cells/10 ml, 100-mm dish) were cultured in a DMEM culture fluid containing 10% of FBS, 1% of P/S, and 1% of fungizone under 5% of CO2, at 37° C., for three days. In addition, the culture fluid contained the DHMBA (10 μM). After the culture, the cells were adjusted by adding a cell lysis buffer (Cell Signaling Technology, Danvers, MA, USA) containing proteolytic enzyme and a protein phosphatase activity inhibitor. The cell solution was centrifuged at 17,000×g at 4° C. for 10 minutes to collect the supernatant. An amount of protein in the supernatant was measured using Bio-Rad Protein Assay Dye (Bio-Rad Laboratories, Inc., Hercules, CA, USA) with albumin as reference protein. Protein samples were stored in a freezer at −80° C. until being used. Using 40 μg of a protein sample solution, the product was added to SDS polyacrylamide gel electrophoresis (SDS-PAGE, 12%) and separated. After that, the protein molecules were transferred to a nylon membrane. Immunoblot was performed on the membrane using an antibody that specifically bound to the protein molecules. The antibodies, such as Ras (cat. no. 3339, rabbit), Akt (cat. no. 9272, rabbit), mitogen-activated protein kinase (MAPK: cat. no. 4695, rabbit), phosphorylated-MAPK (cat. no. 4370, rabbit), mechanistic target of rapamycin (mTOR, cat. no. 4517, mouse), Rb (cat. no. 9309, mouse), p21 (cat. no. 2947, rabbit), caveolin-1 (cat. no. 3267, rabbit), and β-actin (cat. no. 3700, mouse), were purchased from Cell Signaling Technology (Danvers, MA, USA). Also, p53 (cat. no. sc-126, mouse), NF-κB p65 (cat. no. sc-109, rabbit), and integrin β1 (cat. no. sc-13590, mouse) were obtained from Santa Cruz Biotechnology, Inc. (Santa Cruz, CA, USA). In addition, rabbit anti-regucalcin antibody was purchased from Sigma-Aldrich (cat. no. HPA029103, rabbit). Target proteins were incubated at low temperature for 16 hours using the primary antibodies described above. After that, using a secondary antibody of horseradish peroxidase-conjugated secondary antibodies (Santa Cruz Biotechnology, Inc., mouse sc-2005 or rabbit sc-2305; diluted 1:1,000), incubation was performed for 60 minutes at room temperature. After that, protein bands were illuminated with chemiluminescence substrate (cat. no. 34577, Thermo Scientific, Rockford, IL, USA) and exposed and detected on X-ray films using a developer.
(§1) The PC-3 cells (1×10^6 cells/10 ml, 100-mm dish) were cultured under 5% of CO2, at 37° C., for three days in a DMEM culture fluid containing 10% of FBS, 1% of P/S, and 1% of fungizone. In addition, the culture fluid contained the DHMBA (10 μM). After the culture, the cells were adjusted by adding a cell lysis buffer (Cell Signaling Technology, Danvers, MA, USA) containing proteolytic enzyme and a protein phosphatase activity inhibitor. Using 40 μg of a protein sample solution, the product was separated by SDS polyacrylamide gel electrophoresis (SDS-PAGE, 12%). After that, the protein molecules were transferred to a nylon membrane. Immunoblot was performed on the membrane using an antibody that specifically bound to the protein molecules.
as §1, with “In FIG. 5(G), the” for “The”, “molecules. […]” for “molecules.”

COc1c(O)cc(CO)cc1O [DHMBA, 3,5-dihydroxy-4-methoxybenzyl alcohol]
increased: level of activated caspase 3 (cleaved caspase-3) | level of caspase 3
significantly inhibited: expression level of Akt | expression level of MAP kinase | expression level of PI3 kinase | expression level of Ras | expression level of mTOR | expression level of phospho-MAP kinase
significantly increased: expression level of Rb | expression level of p21 | expression level of p53 | expression level of regucalcin
significantly decreased: expression level of NF-κB p65 | expression level of caveolin-1 | expression level of integrin β1
